PubChem BioAssay AID1963985 (Molecular Pharmacology Branch, DTP, NCI, 2024)
pIC50: −log10 of the molar value.

Tested on: 252836-082-R-J2-PDC tumor spheroids, viability
Assay: Anticancer human tumor 252836-082-R-J2-PDC patient-derived head and neck squamous cell carcinoma cell line growth inhibition [PI3K]
Conditions: spheroids with HUVEC and MSC; for pIC50: curve of first compound; for viability, T/C: stronger effect = lower value
Outline: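 Three cell types, namely tumor cells, endothelial cells and mesenchymal stem cells, formed each spheroid. Combinations with four PI3K inhibitors were screened at clinically achievable concentrations decreasing by half-log, and spheroid viability was recorded.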

[1] = second compound 0.0316 µM, first compound 0.00316 µM
[2] = second compound 0.0316 µM, first compound 0.01 µM
[3] = second compound 0.0316 µM, first compound 0.0316 µM
[4] = second compound 0.0316 µM, first compound 0.1 µM
[5] = second compound 0.1 µM, first compound 0.00316 µM
[6] = second compound 0.1 µM, first compound 0.01 µM
[7] = second compound 0.1 µM, first compound 0.0316 µM
[8] = second compound 0.1 µM, first compound 0.1 µM
[9] = second compound 0.316 µM, first compound 0.00316 µM
[10] = second compound 0.316 µM, first compound 0.01 µM
[11] = second compound 0.316 µM, first compound 0.0316 µM
[12] = second compound 0.316 µM, first compound 0.1 µM
[13] = second compound 1 µM, first compound 0.00316 µM
[14] = second compound 1 µM, first compound 0.01 µM
[15] = second compound 1 µM, first compound 0.0316 µM
[16] = second compound 1 µM, first compound 0.1 µM
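Also: spheroids exposed to agents for seven days before readout.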
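For viability, T/C in this document: percent of vehicle DMSO control viability so 100% = untreated growth.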

What does the source list for `CCN1CCN(Cc2ccc(Nc3ncc(F)c(-c4cc(F)c5nc(C)n(C(C)C)c5c4)n3)nc2)CC1` + COc1c(OCCCN2CCOCC2)ccc2c3n(c(=NC(=O)c4cnc(N)nc4)nc12)CCN3?
pIC50 (second compound 0.00316 µM): < 6.00; pIC50 (second compound 0.01 µM): < 6.00; pIC50 (second compound 0.0316 µM): < 6.00; pIC50 (second compound 0.1 µM): > 8.50; pIC50 (second compound 0.316 µM): > 8.50; pIC50 (second compound 1 µM): > 8.50; viability, T/C (second compound 0.00316 µM, first compound 0.00316 µM): 86.4%; viability, T/C (second compound 0.00316 µM, first compound 0.01 µM): 80.1%; viability, T/C (second compound 0.00316 µM, first compound 0.0316 µM): 97.1%; viability, T/C (second compound 0.00316 µM, first compound 0.1 µM): 85.4%; viability, T/C (second compound 0.00316 µM, first compound 0.316 µM): 91.6%; viability, T/C (second compound 0.00316 µM, first compound 1 µM): 82.6%; viability, T/C (second compound 0.01 µM, first compound 0.00316 µM): 75.8%; viability, T/C (second compound 0.01 µM, first compound 0.01 µM): 75.2%; viability, T/C (second compound 0.01 µM, first compound 0.0316 µM): 82.5%; viability, T/C (second compound 0.01 µM, first compound 0.1 µM): 80.8%; viability, T/C (second compound 0.01 µM, first compound 0.316 µM): 72.6%; viability, T/C (second compound 0.01 µM, first compound 1 µM): 78%; viability, T/C [1]: 56.2%; viability, T/C [2]: 59%; viability, T/C [3]: 55.4%; viability, T/C [4]: 57%; viability, T/C (second compound 0.0316 µM, first compound 0.316 µM): 55.5%; viability, T/C (second compound 0.0316 µM, first compound 1 µM): 47%; viability, T/C [5]: 34.6%; viability, T/C [6]: 34.9%; viability, T/C [7]: 31.2%; viability, T/C [8]: 29.7%; viability, T/C (second compound 0.1 µM, first compound 0.316 µM): 33.9%; viability, T/C (second compound 0.1 µM, first compound 1 µM): 32.4%; viability, T/C [9]: 14.1%; viability, T/C [10]: 15.2%; viability, T/C [11]: 12.4%; viability, T/C [12]: 13.1%; viability, T/C (second compound 0.316 µM, first compound 0.316 µM): 17.7%; viability, T/C (second compound 0.316 µM, first compound 1 µM): 14.9%; viability, T/C [13]: 4.92%; viability, T/C [14]: 3.69%; viability, T/C [15]: 3.43%; viability, T/C [16]: 4.13%; viability, T/C (second compound 1 µM, first compound 0.316 µM): 5.78%; viability, T/C (second compound 1 µM, first compound 1 µM): 8.31%

`CC(=O)c1c(C)c2cnc(Nc3ccc(N4CCNCC4)cn3)nc2n(C2CCCC2)c1=O` + CC(Nc1ncnc2nc[nH]c12)c1cc2cccc(Cl)c2c(=O)n1-c1ccccc1 was tested. Which pIC50 (second compound 0.0316 µM) did it give?
The pIC50 was less than 7.00.

What about the pIC50 (second compound 0.1 µM) of the same molecule?
Its pIC50 is less than 7.00.

And the pIC50 (second compound 0.316 µM)?
The pIC50 was less than 7.00.

And the pIC50 (second compound 1 µM)?
The pIC50 was less than 7.00.

What about the pIC50 (second compound 3.16 µM) of the same molecule?
Its pIC50 is less than 7.00.

What about the pIC50 (second compound 10 µM) of the same molecule?
Its pIC50 is less than 7.00.

What about the viability, T/C (second compound 0.0316 µM, first compound 0.000316 µM) of the same molecule?
Its viability, T/C is 99.4%.

What about the viability, T/C (second compound 0.0316 µM, first compound 0.001 µM) of the same molecule?
The viability, T/C was 92.6%.

What about the viability, T/C [1] of the same molecule?
Its viability, T/C is 93%.

And the viability, T/C [2]?
The viability, T/C was 89.1%.

What about the viability, T/C [3] of the same molecule?
Its viability, T/C is 91.8%.

What about the viability, T/C [4] of the same molecule?
Its viability, T/C is 93.2%.

What about the viability, T/C (second compound 0.1 µM, first compound 0.000316 µM) of the same molecule?
Its viability, T/C is 105%.

And the viability, T/C (second compound 0.1 µM, first compound 0.001 µM)?
Its viability, T/C is 89.6%.

And the viability, T/C [5]?
Its viability, T/C is 76.6%.

What about the viability, T/C [6] of the same molecule?
Its viability, T/C is 83.3%.

And the viability, T/C [7]?
The viability, T/C was 83%.

What about the viability, T/C [8] of the same molecule?
Its viability, T/C is 75.4%.

And the viability, T/C (second compound 0.316 µM, first compound 0.000316 µM)?
The viability, T/C was 114%.

And the viability, T/C (second compound 0.316 µM, first compound 0.001 µM)?
Its viability, T/C is 91.4%.

And the viability, T/C [9]?
The viability, T/C was 86.9%.

And the viability, T/C [10]?
Its viability, T/C is 93.7%.

And the viability, T/C [11]?
Its viability, T/C is 88.7%.

What about the viability, T/C [12] of the same molecule?
Its viability, T/C is 96.6%.

What about the viability, T/C (second compound 1 µM, first compound 0.000316 µM) of the same molecule?
Its viability, T/C is 81.9%.

And the viability, T/C (second compound 1 µM, first compound 0.001 µM)?
The viability, T/C was 72.4%.

And the viability, T/C [13]?
Its viability, T/C is 76.8%.

What about the viability, T/C [14] of the same molecule?
The viability, T/C was 93.9%.

And the viability, T/C [15]?
Its viability, T/C is 79.8%.

And the viability, T/C [16]?
Its viability, T/C is 79.2%.

And the viability, T/C (second compound 3.16 µM, first compound 0.000316 µM)?
The viability, T/C was 91.6%.

And the viability, T/C (second compound 3.16 µM, first compound 0.001 µM)?
The viability, T/C was 87.9%.

What about the viability, T/C (second compound 3.16 µM, first compound 0.00316 µM) of the same molecule?
Its viability, T/C is 66.1%.

And the viability, T/C (second compound 3.16 µM, first compound 0.01 µM)?
Its viability, T/C is 74.2%.

What about the viability, T/C (second compound 3.16 µM, first compound 0.0316 µM) of the same molecule?
The viability, T/C was 73.7%.

What about the viability, T/C (second compound 3.16 µM, first compound 0.1 µM) of the same molecule?
The viability, T/C was 71.6%.

And the viability, T/C (second compound 10 µM, first compound 0.000316 µM)?
The viability, T/C was 57.5%.

And the viability, T/C (second compound 10 µM, first compound 0.001 µM)?
The viability, T/C was 56.3%.

What about the viability, T/C (second compound 10 µM, first compound 0.00316 µM) of the same molecule?
Its viability, T/C is 69.2%.

What about the viability, T/C (second compound 10 µM, first compound 0.01 µM) of the same molecule?
The viability, T/C was 61.1%.

And the viability, T/C (second compound 10 µM, first compound 0.0316 µM)?
Its viability, T/C is 71.4%.

And the viability, T/C (second compound 10 µM, first compound 0.1 µM)?
The viability, T/C was 60.6%.

How did the viability, T/C (compound 0.0316 µM) turn out when `CC1(C)CCC(CN2CCN(c3ccc(C(=O)NS(=O)(=O)c4ccc(NCC5CCOCC5)c([N+](=O)[O-])c4)c(Oc4cnc5[nH]ccc5c4)c3)CC2)=C(c2ccc(Cl)cc2)C1` was run?
The viability, T/C was 97.7% [middle of 4 runs].

What about the viability, T/C (compound 0.1 µM) of the same molecule?
The viability, T/C was 99.2% [middle of 4 runs].

And the viability, T/C (compound 0.316 µM)?
Its viability, T/C is 100% [middle of 4 runs].

And the viability, T/C (compound 1 µM)?
Its viability, T/C is 96% [middle of 4 runs].
